The structures appear in SMILES notation.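 96-well plates; 48 h exposure; 5 concentrations. Endpoints by linear interpolation between flanking doses. Not reached: highest tested concentration assigned. TGI marks complete inhibition of growth.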 Where only a bound is given, the exact number is not on record here.

Test systems include HCC-2998 colon; K-562 leukemia; OVCAR-3 ovarian; MCF7 breast; SF-268 CNS; SK-MEL-28 melanoma; PC-3 prostate; SF-295 CNS; OVCAR-5 ovarian; SN12C renal; MDA-MB-231 breast; UACC-257 melanoma; T-47D breast; HOP-92 NSCLC; DU-145 prostate; SK-MEL-5 melanoma; SK-MEL-2 melanoma; OVCAR-8 ovarian; HT29 colon; HS 578T breast.
Common to all, as to assay: NCI tumour cell line growth inhibition, 48 h

Regarding `O=C(NO)c1ccc(OCc2ccccc2)cc1`, the TGI in the assay with HCC-2998 colon, in the assay with K-562 leukemia, with OVCAR-3 ovarian, in the assay with MCF7 breast, with SF-268 CNS and in the assay on SK-MEL-28 melanoma was > 100 µM each time. The TGI in the assay on PC-3 prostate, with SF-295 CNS, in the assay with OVCAR-5 ovarian, in the assay with SN12C renal, with MDA-MB-231 breast and in the assay with UACC-257 melanoma was > 100 µM throughout. In addition, the TGI was 81.5 µM with T-47D breast; > 100 µM with HOP-92 NSCLC; 68.9 µM in the assay with DU-145 prostate; > 100 µM with SK-MEL-5 melanoma; > 100 µM with SK-MEL-2 melanoma; 28.7 µM with OVCAR-8 ovarian. The TGI in the assay on HT29 colon and in the assay on HS 578T breast was > 100 µM throughout.

In the case of `O=C1c2cccnc2-c2nccc3ccnc1c23`, the TGI with HCC-2998 colon came out at 3.41 µM; in the assay with K-562 leukemia it was 0.666 µM; in the assay on OVCAR-3 ovarian, 1.49 µM; with MCF7 breast it was 1.7 µM; in the assay with SF-268 CNS, 6.58 µM; with SK-MEL-28 melanoma, 2.58 µM. For the same compound, the TGI with PC-3 prostate is 3.45 µM; in the assay on SF-295 CNS it was 2.78 µM; with OVCAR-5 ovarian, 4.2 µM; in the assay on SN12C renal, 2.36 µM; with MDA-MB-231 breast, 6.52 µM; with UACC-257 melanoma, 2.27 µM. Also, the TGI in the assay on T-47D breast was 1.77 µM; in the assay on HOP-92 NSCLC, 2.36 µM; in the assay with DU-145 prostate, 2.65 µM; in the assay with SK-MEL-5 melanoma it was 1.84 µM; with SK-MEL-2 melanoma, 4.64 µM; in the assay on OVCAR-8 ovarian it was 2.17 µM. Besides, the TGI in the assay with HT29 colon was 2.09 µM; with HS 578T breast it was > 28.3 µM.

Take `CN(CCNC(=O)c1cc(-c2ccccc2)nc2ccccc12)CCNC(=O)c1cc(-c2ccccc2)nc2ccccc12`: the TGI was 5.54 µM in the assay with HCC-2998 colon; > 36.7 µM in the assay with K-562 leukemia; > 100 µM in the assay with OVCAR-3 ovarian; 42 µM in the assay on MCF7 breast; > 100 µM in the assay on SF-268 CNS; 5.29 µM in the assay with SK-MEL-28 melanoma. In addition, the TGI was > 100 µM in the assay with PC-3 prostate; 90.5 µM with SF-295 CNS; > 55.7 µM in the assay with OVCAR-5 ovarian; > 100 µM in the assay on SN12C renal; > 100 µM in the assay on MDA-MB-231 breast; 10.2 µM with UACC-257 melanoma. Besides, the TGI with T-47D breast is > 100 µM; in the assay with HOP-92 NSCLC it was 14.7 µM; with DU-145 prostate it was > 95.5 µM; with SK-MEL-5 melanoma, 5.7 µM; with SK-MEL-2 melanoma, 24.9 µM; in the assay on OVCAR-8 ovarian, > 100 µM. Further, the TGI in the assay on HT29 colon stood at 4.74 µM; in the assay with HS 578T breast, 99.4 µM.

For the compound `CCOC(=O)C1C(=O)CC(C)(O)C(C(=O)OCC)C1c1ccc(OC)cc1` (stereo not given), the TGI with HCC-2998 colon, in the assay on K-562 leukemia, in the assay with OVCAR-3 ovarian, in the assay with MCF7 breast, with SF-268 CNS and in the assay on SK-MEL-28 melanoma was > 100 µM throughout. Moreover, the TGI in the assay with PC-3 prostate, in the assay on SF-295 CNS, in the assay with OVCAR-5 ovarian, in the assay on SN12C renal, in the assay with MDA-MB-231 breast and in the assay on UACC-257 melanoma was > 100 µM throughout. Also, the TGI with T-47D breast, with HOP-92 NSCLC, with DU-145 prostate, in the assay on SK-MEL-5 melanoma, in the assay with SK-MEL-2 melanoma and with OVCAR-8 ovarian was > 100 µM throughout. Also, the TGI in the assay with HT29 colon and in the assay on HS 578T breast was > 100 µM in each case.

As to `CC[C@@H]1C[C@@H](O)[C@@H]2[C@H](O)[C@H](O)CN2C1`, the TGI in the assay with HCC-2998 colon, with K-562 leukemia, with OVCAR-3 ovarian, in the assay on MCF7 breast, with SF-268 CNS and in the assay with SK-MEL-28 melanoma was > 100 µM throughout. The TGI in the assay with PC-3 prostate, in the assay with SF-295 CNS, in the assay with OVCAR-5 ovarian, with SN12C renal, in the assay with MDA-MB-231 breast and in the assay on UACC-257 melanoma was > 100 µM each time. Besides, the TGI with T-47D breast, in the assay with HOP-92 NSCLC, with DU-145 prostate, in the assay on SK-MEL-5 melanoma, in the assay on SK-MEL-2 melanoma and in the assay on OVCAR-8 ovarian was > 100 µM in each case. For the same compound, the TGI with HT29 colon and with HS 578T breast was > 100 µM throughout.

Take `CCCCN1C(=O)C[C@H]2[C@@H]3CCc4cc(OCCN5CCCC5)ccc4[C@H]3CC[C@]2(C)C1=O`: the TGI with HCC-2998 colon was found to be 15.8 µM; with K-562 leukemia, 7.23 µM; with OVCAR-3 ovarian, 23.7 µM; with MCF7 breast it was 15.6 µM; in the assay on SF-268 CNS, 28 µM; in the assay with SK-MEL-28 melanoma, 12 µM. The TGI in the assay on PC-3 prostate worked out at 20.4 µM; in the assay on SF-295 CNS, 9.63 µM; with OVCAR-5 ovarian it was 24.3 µM; with SN12C renal it was 30.2 µM; in the assay with MDA-MB-231 breast, 15.7 µM; in the assay on UACC-257 melanoma it was 13.4 µM. Also, the TGI was determined as 30.4 µM with T-47D breast; 18.3 µM in the assay on HOP-92 NSCLC; 27 µM with DU-145 prostate; 15.7 µM in the assay on SK-MEL-5 melanoma; 19.2 µM in the assay on SK-MEL-2 melanoma; 30.8 µM in the assay on OVCAR-8 ovarian. Besides, the TGI amounted to 5.06 µM with HT29 colon and 39.8 µM in the assay on HS 578T breast.

As to `O=C1NCN(c2ccccc2)C12CCN(CCCSc1ccc(F)cc1)CC2`, the TGI with HCC-2998 colon was 67.2 µM; in the assay on K-562 leukemia, > 79.2 µM; with OVCAR-3 ovarian it was > 100 µM; with MCF7 breast it was > 39.9 µM; in the assay on SF-268 CNS it was > 100 µM; in the assay with SK-MEL-28 melanoma it was > 100 µM. Besides, the TGI with PC-3 prostate is > 100 µM; with SF-295 CNS, > 100 µM; with OVCAR-5 ovarian, > 100 µM; in the assay on SN12C renal, > 100 µM; with MDA-MB-231 breast it was 25.2 µM; in the assay on UACC-257 melanoma, 8.21 µM. The TGI in the assay with T-47D breast is > 100 µM; in the assay on HOP-92 NSCLC it was 41.6 µM; in the assay with DU-145 prostate, > 100 µM; in the assay with SK-MEL-5 melanoma, 17.9 µM; in the assay on SK-MEL-2 melanoma it was 43.3 µM; with OVCAR-8 ovarian, > 100 µM. Moreover, the TGI with HT29 colon is 19.4 µM; with HS 578T breast, > 100 µM.

For `CCOC(=O)C(SCCO)C(C(=O)OCC)n1cc(C)c(=O)[nH]c1=O` (stereo not given), the TGI with HCC-2998 colon is > 78.9 µM; with K-562 leukemia it was 15.8 µM; in the assay on OVCAR-3 ovarian, 51.7 µM; with MCF7 breast, 43.5 µM; in the assay with SF-268 CNS, > 100 µM; in the assay with SK-MEL-28 melanoma, > 65.6 µM. The TGI in the assay on PC-3 prostate is 34.6 µM; in the assay on SF-295 CNS, > 100 µM; with OVCAR-5 ovarian it was 32.1 µM; in the assay on SN12C renal, > 45.8 µM; in the assay with MDA-MB-231 breast it was 48.9 µM; in the assay on UACC-257 melanoma it was > 84.6 µM. In addition, the TGI was > 100 µM with T-47D breast; 71.9 µM with HOP-92 NSCLC; > 100 µM in the assay on DU-145 prostate; > 70.6 µM with SK-MEL-5 melanoma; 51.1 µM in the assay on SK-MEL-2 melanoma; > 62.7 µM in the assay with OVCAR-8 ovarian. For the same compound, the figures for the TGI in the assay on HT29 colon and in the assay on HS 578T breast were 32.2 µM and > 100 µM, respectively.

With `CN(C)C1COC2Cc3ccccc3C1O2` (stereo not given), the TGI in the assay with HCC-2998 colon, with K-562 leukemia, in the assay with OVCAR-3 ovarian, with MCF7 breast, in the assay with SF-268 CNS and with SK-MEL-28 melanoma was > 100 µM in each case. The TGI in the assay on PC-3 prostate, in the assay with SF-295 CNS, in the assay on OVCAR-5 ovarian, in the assay on SN12C renal, in the assay on MDA-MB-231 breast and in the assay on UACC-257 melanoma was > 100 µM in each case. In addition, the TGI in the assay with T-47D breast, in the assay on HOP-92 NSCLC, in the assay on DU-145 prostate, in the assay on SK-MEL-5 melanoma, with SK-MEL-2 melanoma and in the assay with OVCAR-8 ovarian was > 100 µM in each case. The TGI in the assay on HT29 colon and with HS 578T breast was > 100 µM in each case.

Consider `c1ccc(-c2cc(-c3cc(-c4ccccc4)no3)on2)cc1`, for which the TGI was > 100 µM with HCC-2998 colon; 49 µM in the assay on K-562 leukemia; > 100 µM with OVCAR-3 ovarian; > 100 µM with MCF7 breast; > 100 µM in the assay with SF-268 CNS; > 100 µM in the assay on SK-MEL-28 melanoma. For the same compound, the TGI in the assay on PC-3 prostate was > 100 µM; with SF-295 CNS, > 100 µM; in the assay on OVCAR-5 ovarian it was > 100 µM; in the assay on SN12C renal, > 100 µM; with MDA-MB-231 breast, 74.8 µM; in the assay with UACC-257 melanoma, > 100 µM. Further, the TGI in the assay with T-47D breast was > 100 µM; in the assay on HOP-92 NSCLC it was > 100 µM; with DU-145 prostate, > 100 µM; in the assay with SK-MEL-5 melanoma, > 100 µM; with SK-MEL-2 melanoma, > 100 µM; with OVCAR-8 ovarian, 30.2 µM. The TGI in the assay with HT29 colon and with HS 578T breast was > 100 µM throughout.

Regarding `Cc1ccc2nc(Cl)c(/C=N/N3C(=O)/C(=C/Cc4ccco4)N=C3c3ccccc3)cc2c1`, the TGI in the assay on HCC-2998 colon is 75.8 µM; in the assay with K-562 leukemia it was > 100 µM; with OVCAR-3 ovarian, > 100 µM; with MCF7 breast, > 93.9 µM; in the assay with SF-268 CNS it was 70.6 µM; in the assay on SK-MEL-28 melanoma, > 100 µM. Moreover, the TGI in the assay on PC-3 prostate is > 100 µM; in the assay with SF-295 CNS, > 100 µM; in the assay on OVCAR-5 ovarian, > 100 µM; with SN12C renal, > 69.6 µM; in the assay on MDA-MB-231 breast, > 100 µM; with UACC-257 melanoma, 71.8 µM. Also, the TGI in the assay with T-47D breast is > 100 µM; with HOP-92 NSCLC, 66.5 µM; in the assay on DU-145 prostate, > 79.5 µM; in the assay with SK-MEL-5 melanoma, > 100 µM; in the assay on SK-MEL-2 melanoma it was > 100 µM; in the assay on OVCAR-8 ovarian, > 68.2 µM. Moreover, the TGI in the assay on HT29 colon was > 79.4 µM; with HS 578T breast, > 86.2 µM.
